Experimental data taken from patent publication US8956589B2, “Imaging diagnostic agent and extracorporeal diagnostic agent for incurable neurological diseases” (Shiga University of Medical Science, priority 2009, dated 2015).

Assays:
senile plaque = assay: 19F-MR image measurement in amyloid precursor protein transgenic mouse (Tg2576); assay type: in vivo; conditions: tail vein, 8 mg/ml 250 μl, measured for 3 hours after 3 hours post administration
Method: A quantity of 4.5 mg of compound (I) was measured, and 0.112 ml of Cremophol EL was added to the measured compound. The compound was dissolved by use of a glass stick while the mixture being heated. Then, 0.45 ml of saline was added to the mixture to prepare an administration solution (8 mg/ml).
This administration solution 250 μl was administered, in one shot (about 90 seconds), to the tail vein of an amyloid precursor protein transgenic mouse (Tg2576, created according to the method disclosed in Science, 274,99 (1996)) under anesthesia by pentobarbital sodium.
After the administration was ended, with the mouse under anesthesia, the head of the mouse was continuously measured in units of 1 hour by use of an MRI device. Then, pieces of data were added to create images. ^19F-MRI brain images were obtained by chemical shift imaging method (CSI method). The MRI device that was used was 7T Unity Inova MR Scanner (by Varian).

senile plaques = assay: Brain tissue staining after in vivo administration; set-up: species or system mouse
Method: The brain of the mouse scanned by ^19F-MRI in test example 2 was taken out and fixed for 2 days in a 4%-formalin solution, and then placed in a 15%-sucrose solution for cryoprotection. Then, a 20 μm-thick slice was created by a cryostat. Next, the slice was caused to react with a rabbit antihuman amyloid β polyclonal antibody (IBL, 0.2 μg/ml) at 4° C. overnight. Further, the sample was washed with PBS-T for 10 minutes 3 times, and then caused to react with Alexa 647 anti-rabbit IgG antibody (Molecular Probes, 500-fold dilution) for 4 hours at room temperature. This sample was washed with PBS-T for 10 minutes 3 times, and then counterstained with cresyl violet for 1 minute. Then, the sample was further washed with distilled water, and then enclosed with glycerol, and this sample was used for observation. The binding capacity of the compound to a senile plaque was observed by an inverted fluorescence microscope. It should be noted that a compound image was measured by use of the FITC filter and an amyloid β protein image was measured by means of the Cy5 filter. The same treatment was performed onto a normal mouse.

[1] = target: amyloid β peptide aggregates (1-40) (Homo sapiens (Human), UniProt P05067); assay type: binding; conditions: aggregates 1 μM, thioflavin-T 3 μM, compound 0.02 to 20 μM, 30 minutes at 23° C., pH 7.4; read-out: Amyloid binding property (IC50)
Method: The binding capacity of the compounds to an amyloid β peptide aggregate was quantitatively measured by a thioflavin-T fluorescence inhibition test. […] The resultant solution was cause to react for 30 minutes at 23° C. with the light shielded. Then, the fluorescence of thioflavin-T was measured under a condition of Ex=440 nm, Em=490 nm, Cutoff filter=475 nm. The IC50 values were calculated by using an analysis software, GraphPad PRISM Ver.5 (GraphPad Software, Inc.).

[2] = target: T1, amyloid β peptide aggregates (Homo sapiens (Human), UniProt P05067); assay: Model experiment of in-vitro diagnostic agent (colour change of solution)
Method: Amyloid β peptide aggregates were prepared by the method described in test example 6, and caused to precipitate in the solution by prolonging the reaction time. After the aggregates were prepared in this manner, the precipitation containing the amyloid β peptide aggregates and a supernatant not containing the amyloid β peptide aggregates were separated. The precipitation containing the amyloid aggregates was suspended at a concentration of 100 μM, in a buffer. Then, each of compounds 23 and 1 was dissolved at a concentration of 20 μg/ml in a 50 mM phosphate buffer (pH 7.5) containing 100 mM NaCl. For each compound, four kinds of liquid mixtures were prepared, that is, a liquid mixture obtained by adding 100 μl of a buffer into 100 μl of the compound containing solution (A of FIG. 13); a liquid mixture obtained by adding 100 μl of a buffer in which amyloid β peptides before agglutination reaction were dissolved, to 100 μl of the compound containing solution (B of FIG. 13); a liquid mixture obtained by adding 100 μl of a buffer in which amyloid β peptide aggregates were suspended, to 100 μl of the compound containing solution (C of FIG. 13); and a liquid mixture obtained by adding 100 μl of a buffer in which amyloid β peptide aggregates were suspended, to 100 μl of a buffer not containing a compound (D of FIG. 13). Then, the four kinds of liquid mixtures were left to stand at room temperature. […] Only the sample in which compound 1 and amyloid β peptide aggregates were mixed began to be stained in red after 5 minutes, and the color became gradually stronger and changed into strong red after about 30 minutes. […] When the absorption spectrum of the sample that had turned into red was measured, the peak had shifted towards a longer wavelength. […] As a result, it is considered that the keto/enol equilibrium in the solution was lost, and structural changes happened, that is, the keto bodies newly turned into enol bodies in the solution.

[3] = target: T1, amyloid β peptide aggregates; assay: Binding to and release from precipitated amyloid β peptide aggregates (absorbance of supernatant)
Method: Each of compound 23, compound 1, and compound 24 is dissolved at a concentration of 2 μg/mL, in a phosphate buffer, and then amyloid β peptide aggregates are added to each solution, and the resultant solution is caused to react for 1 hour. Then, the solution is centrifuged for 10 minutes at 6,000 rpm, to separate the amyloid β peptide aggregates. A supernatant was removed, and an absorbance measurement was performed to measure the quantity of the compound that had not bound to the amyloid peptide aggregates and that were contained in the supernatant. The obtained quantity was subtracted from the original quantity of the compound, whereby the quantity of the compound that had bound to the amyloid β peptide aggregates was calculated.
Next, the precipitated amyloid β peptide aggregates were washed, a buffer was added thereto, and the quantity of the compound that got released was measured. Then, the rate of the compound that had bound to amyloid β peptide aggregates and then was eluted into the buffer was calculated using the original quantity of the compound as 100%.

[4] = target: T1, amyloid β peptide aggregates; assay: Quantity determination of amyloid β aggregates by flow cytometry with anti-Aβ antibody microspheres; conditions: FACS, 5 to 60 minutes at 4° C., background of nonspecific IgG1 microspheres subtracted
Method: The washing operation was performed as follows: 0.75 mL of PBS-T was added, the resultant mixture was centrifuged at 10,000×G for 5 minutes, and then the supernatant was removed. […] During the reaction, the mixture was agitated every 5 to 15 minutes. After the reaction, the microspheres were washed 3 times by the same method above, then suspended in PBS-T 0.25 mL, and kept at 4° C. until they were used. Negative control microspheres were prepared by use of a nonspecific mouse IgG1 antibody (by SIGMA, No. M 9269, mouse myeloma-derived IgG1, 1 mg/mL) by the same method. […] By subtracting as a background the analysis value of the negative control microspheres to which the nonspecific mouse IgG1 antibody was bound, the number of counts of anti Aβ antibody-specific fluorescence positive microsphere particles was determined.

[5] = compound 20 μg/ml solution mixed with amyloid β peptide aggregates, room temperature

T1 sequence (P05067 672-711): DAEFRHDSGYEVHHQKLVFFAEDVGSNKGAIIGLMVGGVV
Chain of amyloid β peptide aggregates (1-40) (P05067 672-711): as above

## COC(=O)CCC(C(=O)/C=C/c1ccc(O)c(OC(F)(F)F)c1)C(=O)/C=C/c1ccc(O)c(OC(F)(F)F)c1 [Compound 1, 1,7-bis(4′-hydroxy-3′-trifluoromethoxyphenyl)-4-methoxycarbonylethyl-1,6-heptadiene-3,5-dione]
Senile plaque
  19F-MRI signal in brain: signals that are assumed to be corresponding to a senile plaque were detected in the brain
Senile plaques; Tg2576 mouse after i.v. administration
  transmissiveness through the blood-brain barrier: confirmed
Senile plaques; brain slices of Tg2576 mouse after i.v. administration, fluorescence vs amyloid β antibody stain
  binding to senile plaques in vivo: sufficient binding
[1]
  IC50: 440 nM
[2]; [5]
  time at which colour changed into strong red: about 30 minutes
  time at which sample began to be stained in red: 5 min
[2]; compound 20 μg/ml solution mixed with non-aggregated amyloid β peptides
  colour of sample with amyloid β peptides before agglutination reaction: did not change
[3]; compound 2 μg/mL in phosphate buffer, 1 hour reaction
  binding rate to amyloid β peptide aggregates: 57%
[3]; washed precipitated aggregates, buffer added, original quantity as 100%
  rate of compound released (eluted into buffer) from amyloid β peptide aggregates: highest value
[4]
  counts of fluorescence positive microsphere particles depending on aggregate concentration: quantitativeness was confirmed
